Measured values reported in patent US6949564B2, “NPY-5 antagonists” (Pfizer Inc., priority 2002, dated 2005).

Tested on: endogenous NPY response (Y1) of human Bowes melanoma cells (HMCB)
Experiment: Block of endogenous NPY response in host human Bowes melanoma cells
Conditions: at 10 uM; host Bowes melanoma cells with low levels of Y1 responses

## NC(N)=NCCC[C@@H](NC(=O)C(c1ccccc1)c1ccccc1)C(=O)NCc1ccc(O)cc1 [BIBP3226]
  block of the endogenous NPY response: completely blocks
